Source: ChEMBL document CHEMBL1156958, “Effect of essential oils, such as raspberry ketone and its derivatives, on antiandrogenic activity based on in vitro reporter gene assay” (Bioorg Med Chem Lett, 2010)

How the values were obtained:
Rattus norvegicus [1] = assay: Drug level in Wistar rat blood at 10 g/kg; assay type: ADME, organism-based; settings: in vivo, 10000 mg/kg
Rattus norvegicus [2] = assay: Drug level in Wistar rat blood at 200 mg/kg; assay type: ADME, organism-based; design: dose 200 mg/kg; settings: in vivo
Androgen receptor = biological target: T1, Androgen receptor (Homo sapiens, UniProt P10275); assay: Antagonist activity at AR in human MDA-kb2 cells co-transfected with MMTV-luc assessed as decrease in DHT-induced luciferase activity by reporter gene assay; assay type: functional, cell-based
T1 sequence (P10275 whole entry): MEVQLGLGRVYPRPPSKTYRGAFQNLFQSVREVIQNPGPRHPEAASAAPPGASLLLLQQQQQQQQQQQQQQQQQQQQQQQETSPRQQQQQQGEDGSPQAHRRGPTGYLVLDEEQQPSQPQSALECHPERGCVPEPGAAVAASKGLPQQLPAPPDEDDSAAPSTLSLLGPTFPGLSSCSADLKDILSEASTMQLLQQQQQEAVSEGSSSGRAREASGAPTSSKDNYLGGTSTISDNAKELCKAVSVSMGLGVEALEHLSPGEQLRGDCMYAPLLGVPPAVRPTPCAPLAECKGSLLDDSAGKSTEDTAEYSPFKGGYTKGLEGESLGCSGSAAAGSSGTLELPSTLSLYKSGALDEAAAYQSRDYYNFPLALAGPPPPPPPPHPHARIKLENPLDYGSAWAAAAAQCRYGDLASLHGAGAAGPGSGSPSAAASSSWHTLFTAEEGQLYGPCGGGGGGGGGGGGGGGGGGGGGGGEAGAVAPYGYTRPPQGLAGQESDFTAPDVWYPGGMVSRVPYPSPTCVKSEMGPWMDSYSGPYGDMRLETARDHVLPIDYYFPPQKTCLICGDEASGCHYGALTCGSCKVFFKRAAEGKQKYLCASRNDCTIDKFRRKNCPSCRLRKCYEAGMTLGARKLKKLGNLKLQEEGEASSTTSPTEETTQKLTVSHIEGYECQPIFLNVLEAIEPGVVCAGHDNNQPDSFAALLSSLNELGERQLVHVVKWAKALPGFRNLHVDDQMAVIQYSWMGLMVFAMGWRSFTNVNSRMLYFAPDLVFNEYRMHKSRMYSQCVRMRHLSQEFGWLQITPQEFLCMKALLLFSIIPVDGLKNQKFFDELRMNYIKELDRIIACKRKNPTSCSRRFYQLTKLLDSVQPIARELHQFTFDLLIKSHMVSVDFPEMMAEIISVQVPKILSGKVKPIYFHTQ

Drug uptake (Rattus norvegicus [1])	Compound	Drug uptake (Rattus norvegicus [2])	IC50 (Androgen receptor; read-out: IC50)	IC50 (Androgen receptor; read-out: pIC50 (converted))
4000 ng/mL	CC(=O)CCc1ccc(O)cc1 [RASPBERRYKETONE]	–	–	–
–	CC(C)(C)CC(C)(C)c1ccc(O)cc1	80 ng/mL	–	–
–	CC(=O)Cc1ccc(O)cc1	–	420 µM	417 µM
–	COc1cc(CCC(C)=O)ccc1O [ZINGERONE]	–	153 µM	151 µM
